# From US20100330128A1, “Method of improving immune function in mammals using lactobacillus strains with certain lipids” (priority 2005, published 2010)
# Tested on: lymphocytes separated from spleen and thymus
# Experiment: Lymphocyte proliferation assay (alamar blue)
# Format: cell-based, BALB/c mice
# Conditions: 72 hours after addition of stimulant, FIG. 2
# Method: Lymphocytes were prepared from the spleen and thymus of BALB/c mice and were incubated with supernatants derived from growing L. reuteri ATCC 55730 in the presence and absence of glycerol (50 mM). L. reuteri ATCC 55730 was selected as it is a known good producer of 3-HPA and thus follows the selection criteria of the invention. Control incubations were performed with glycerol alone, media alone and known lymphocyte proliferation stimulants.
# Separation of spleen and thymus lymphocytes. BALB/c mice were sacrificed by cervical dislocation, and their thymus was separated, immersed in Hanks' balanced salt solution (HBSS) and torn piecemeal to obtain a single cell. The single cell was centrifuged through double layers in Histopaque-1083 (Sigma) to obtain lymphocytes. These cells were washed two times with IMDM, and living cells were counted according to tryphan blue exclusion technique and used in the experiment at an adjusted final concentration of 1×10^7/mL.
# Preparation of bacterial lysates. L. reuteri and Listeria monocytogenes lysates were prepared as mentioned in the phagocytic assay.
# Preparation of L. reuteri supernatants. L. reuteri supernatant was also prepared as mentioned in the phagocytic assay.
# Lymphocyte proliferation assay. Lymphocyte proliferation assay was carried out using lymphocytes suspended in IMDM+10% horse serum at 4×10^6 per well. The lymphocytes were treated with varying concentrations of L. reuteri, L. monocytogenes cell lysate and L. reuteri supernatant along with a reference stimulant, of which concentrations and conditions were as follows:
# In the results reported in Table 2, MRS and glycerol sol. controls were used by adjusting pH in broths which were not incubated with L. reuteri, and the following symbols used: ConA: concanavalin A, PWM: pokeweed mitogen, PHA: phytohemaaglutinin, LPS: liphopholysaccharide from Salmonella enterica serovar Typhimurium.
# Stimulants including ConA were added into a well containing lymphocytes in accordance with each condition, 3 hours before alamar blue was added at 10% concentration. 72 hours after the addition of each stimulant, the level of lymphocyte proliferation was determined by the value of OD570 nm-OD600 nm.
# The result of lymphocyte proliferation was represented as Stimulation Index (SI), which is (ODtreatment-ODmedia control)/ODcell control value. In the case of L. reuteri supernatant treatment group, however, values of J and K treatment groups, but not IMDM+10% horse serum, were used as OD media control value.
row,Substance,lymphocyte proliferation (Stimulation Index)
1,phytohemaaglutinin [PHA],marked stimulation of lymphocyte proliferation
2,liphopholysaccharide from Salmonella enterica serovar Typhimurium [LPS],marked stimulation of lymphocyte proliferation
3,pokeweed mitogen [PWM],marked stimulation of lymphocyte proliferation
4,concanavalin A [ConA],marked stimulation of lymphocyte proliferation
